We go through three compounds from patent publication US20260035385A1, “BENZO NITROGEN-CONTAINING HETEROAROMATIC RING DERIVATIVE AND USE THEREOF IN MEDICINE” (Xizang Haisco Pharmaceutical Co., Ltd., priority 2021, published 2026).

As usually defined, the pIC50 is −log10 of the IC50, conventionally taken in molar units. For orientation: bioavailability means the share of a dose that reaches the circulation, judged against a reference dose that is usually intravenous. A higher bioavailability goes with good availability. Usually AUC(0-t) stands for the area under the concentration-time curve up to a stated or last time point. For orientation: Papp A→B means the apparent permeability from the apical to the basolateral side of a cell layer. The low end stands for slow passage, the high end for fast passage. Usually Papp B→A stands for the apparent permeability from the basolateral to the apical side of a cell layer. One may read the half-life as the time in which the quantity being followed falls by half.

Data set [1] concerns complement alternative pathway. In words: Biological Test Example 2: complement alternative pathway inhibition, IBL alternative pathway kit, serum from healthy volunteers. Type of data set: biochemical, human. Conditions: LPS-coated plate, 37 °C 1 h, read-out: IC50 for inhibiting alternative pathway. The procedure:
The inhibitory effect of the compounds on the complement alternative pathway was detected using the IBL alternative pathway kit (COMPL AP330 RUO). Serum from healthy volunteers was collected and 1 portion was diluted with a buffer of 20 mM EDTA in gelatin (0.15 mM CaCl2, 141 mM NaCl, 4.5 mM MgCl2, 4.2 mM HEPES, and 0.1% gelatin at pH 7.4) to 50% (v/v), and 1 portion was diluted to 50% (v/v) with a buffer of 20 mM EGTA in gelatin. The compounds were prepared in DMSO to a working solution 100 times the final concentration. Before use, 50% of the above serum was diluted 1/18 with the AP diluent in the kit. 1 part of the compound working solution (v/v) or DMSO (positive control PC) was added to 99 parts of the diluted serum containing EGTA for pretreatment for 30 min, and 1 part of DMSO (v/v) was added to 99 parts of the diluted serum containing EDTA, as negative control (NC). The serum pretreated with the above compounds (or DMSO) was added at […] to the LPS-coated 96-well plate, incubated at 37° C. for 1 h, and the plate was washed 3 times with washing solution in the kit; the conjugated chromogenic substrate was added according to the instruction in the kit, and the absorbance was read at 405 nm with a microplate reader. The inhibitory activity of the compounds on alternative pathway was calculated using the following formula.
OD^CPD was the OD value when the inhibitor was added, OD^NC was the OD value of the negative control, and OD^PC was the OD value of the positive control.
Graphpad was used to perform nonlinear regression on the final concentrations and inhibition rates of the compounds to obtain the IC50 of the compounds for inhibiting the alternative pathway.

In the next data set the test system is C3a levels in mice. The data set can be described thus: Biological Test Example 4: LPS mouse model, plasma C3a level. Type of data set: in vivo. The following applies: compound given 3.5 h after LPS, plasma at 7.5 h. The procedure: Mice were intravenously given 0.5 mg/ml LPS solution at 100 μL/mouse to create a model, and the naive group was given physiological saline. Mice were given the compounds 3.5 h after injection of physiological saline/LPS solution, and the naive group and model group were given vehicle (0.5% MC+0.5% Tween 80). 7.5 h after the mice in each group were injected with physiological saline/LPS, blood was collected from the orbit and the plasma was separated. The plasma C3a level was detected using mouse C3a ELISA kit (NOVUS/NBP2-70037), and the inhibition rate of C3a was calculated. The formula is as follows: […]
Among them: Ct, C3a level after administration; Cnaive, C3a level of naive group; Cmodel, C3a level of model group.

The next data set concerns the target FB (Homo sapiens, UniProt P00751). The data set can be described thus: biochemical.
The nature of data set [2]: Stability in liver microsome (DLM). Type of data set: in vitro ADME, dog. Conditions: 0.50 mg/mL microsomal protein, 1.00 μM, NADPH, 37 °C. The procedure:
(§1) The total volume of the incubation system was 100 μL, the medium was 100 mM phosphate buffer (PBS, pH 7.4), including liver microsomal protein with a final concentration of 0.50 mg/mL, 1.00 μM test substance and 1.00 mM NADPH, 37° C. water bath was used for incubation, and 300 μL of ice-cold acetonitrile containing internal standard was added to terminate the reaction after 0, 5, 10, 20, 30, and 60 min of reaction, respectively. The negative control was incubated with heat-inactivated liver microsomes of the corresponding species, and the incubation time points were 0 and 60 min respectively. The LC/MS/MS method was used to detect the concentration of the test substance in the sample and the remaining rate of the compound was calculated.
A general note: Liver microsomes are a subcellular fraction often used to study metabolism.

Data set [3] can be described thus: Stability in liver microsome (RLM). It is filed as in vitro ADME, rat. Conditions: 0.50 mg/mL microsomal protein, 1.00 μM, NADPH, 37 °C. How it is done:
as §1

The nature of data set [4]: Pharmacokinetic test in mice. Conditions: male, C57, mouse, plasma, po, i.g. (10 mg/kg). Type of data set: in vivo. How it is done: Test objective: In this experiment, a single dose of test compounds was administered to C57 mice intravenously and intragastrically, the concentrations of the test compounds in plasma of mice were measured, and the pharmacokinetic characteristics of the test compounds in mice were evaluated.
Experimental animals: Male C57 mice, 20-25 g, 6-8 weeks old, 18 mice/compound. purchased from Chengdu Ddossy Experimental Animals Co., Ltd.
Experimental method: On the day of the experiment, 18 C57 mice were randomly grouped according to their body weight. The animals were fasted with water available for 12 to 14 hours one day before the administration of a test compound, and were fed 4 hours after the administration.
Sampling: Before and after the administration, 0.08 mL of blood sample was drawn from the orbit under isoflurane anesthesia, and placed in an EDTAK2 centrifuge tube. Centrifugation was carried out at 5000 rpm at 4° C. for 10 min, and the plasma was collected.
Time points for plasma collection in IV&PO group: 0, 5 min, 15 min, 30 min, 1 h, 2 h, 4 h, 6 h, 8h, and 24 h.
(§2) Before analysis and detection, all samples were stored at −60° C. The samples were analyzed quantitatively by LC-MS/MS.

The nature of data set [5]: Pharmacokinetic experiment in monkeys. The following applies: compared with the trifluoroacetate of LNP023, in words. It is filed as in vivo, cynomolgus monkeys. How it is done: Test objective: In this experiment, a single dose of test compounds was administered to cynomolgus monkeys intravenously and intragastrically, and the concentrations of the test compounds in plasma of the monkeys were measured to evaluate pharmacokinetic characteristics of the test compounds in the monkeys.
Experimental animals: Male cynomolgus monkeys, 3-5 kg, 3-6 years old, 6 monkeys/compound. Purchased from Suzhou Xishan Biotechnology Inc.
Experimental method: on the day of the test, 6 monkeys were randomly grouped according to their body weights. The animals were fasted with water available for 14 to 18 hours one day before the administration of a test compound, and were fed 4 hours after the administration.
Sampling: before and after the administration, 1.0 mL of blood was taken from the limb veins, and placed in an EDTAK2 centrifuge tube. Centrifugation was carried out at 5000 rpm at 4° C. for 10 min, and the plasma was collected.
(§3) Time points for plasma collection in IV&PO group: 0, 5 min, 15 min, 30 min, 1 h, 2 h, 4 h, 6 h, 8h, 10 h, 12h, and 24 h.
as §2

A short description of data set [6]: Stability in liver microsome (CLM). It is filed as in vitro ADME, cynomolgus monkey. The following applies: 0.50 mg/mL microsomal protein, 1.00 μM, NADPH, 37 °C. The procedure: as §1
A short description of data set [7]: Stability in liver microsome (MouLM). Type of data set: in vitro ADME, mouse. The following applies: 0.50 mg/mL microsomal protein, 1.00 μM, NADPH, 37 °C. How it is done:
as §1

Another data set is described as follows: Caco2 permeability test. Type of data set: in vitro ADME. Conditions: human; Caco-2 monolayer, 2 μM, 2 h, pH 7.4. The procedure:
(§4) The experiment used a monolayer of Caco-2 cells incubated in triplicate in a 96-well Transwell plate. […] Acetonitrile containing internal standard was then added to precipitate the protein. […] The integrity of the cell monolayer after 2 h of incubation was assessed by leakage of Lucifer Yellow.
(In general: Passage across Caco-2 layers is used to estimate intestinal permeability.)

For another data set, the system named is Caco-2 cells. In words: Caco2 permeability test. Type of data set: in vitro ADME. The following applies: Caco2, compared with the trifluoroacetate of LNP023, in words. How it is done:
as §4

Data set [8] can be described thus: Stability in liver microsome (HLM). The following applies: 0.50 mg/mL microsomal protein, 1.00 μM, NADPH, 37 °C. Type of data set: in vitro ADME, human. How it is done:
as §1

The nature of data set [9]: Pharmacokinetic test of dogs. Type of data set: in vivo. The following applies: male, beagle, dog, plasma, po, i.g. (5 mg/kg). The procedure:
Test objective: In this experiment, a single dose of test compounds was administered to beagle dogs intravenously and intragastrically, and the concentrations of the test compounds in plasma of the beagle dogs were measured to evaluate pharmacokinetic characteristics of the test compounds in the beagle dogs.
Experimental animals: Male beagle dogs, 8-11 kg, 1-3 years old, 6 dogs/compound. purchased from Beijing Marshall Biotechnology Co. Ltd.
Experimental method: on the day of the test, 6 beagle dogs were randomly grouped according to their body weights. The animals were fasted with water available for 14 to 18 hours one day before the administration of a test compound, and were fed 4 hours after the administration.
Sampling: Before and after the administration, 1.0 mL of blood was taken from the jugular veins or limb veins, and placed in an EDTAK2 centrifuge tube. Centrifugation was carried out at 5000 rpm at 4° C. for 10 min, and the plasma was collected.
as §3, §2

pIC50: −log10 of the molar value.

FB, sequence (P00751 260-764 limits assumed): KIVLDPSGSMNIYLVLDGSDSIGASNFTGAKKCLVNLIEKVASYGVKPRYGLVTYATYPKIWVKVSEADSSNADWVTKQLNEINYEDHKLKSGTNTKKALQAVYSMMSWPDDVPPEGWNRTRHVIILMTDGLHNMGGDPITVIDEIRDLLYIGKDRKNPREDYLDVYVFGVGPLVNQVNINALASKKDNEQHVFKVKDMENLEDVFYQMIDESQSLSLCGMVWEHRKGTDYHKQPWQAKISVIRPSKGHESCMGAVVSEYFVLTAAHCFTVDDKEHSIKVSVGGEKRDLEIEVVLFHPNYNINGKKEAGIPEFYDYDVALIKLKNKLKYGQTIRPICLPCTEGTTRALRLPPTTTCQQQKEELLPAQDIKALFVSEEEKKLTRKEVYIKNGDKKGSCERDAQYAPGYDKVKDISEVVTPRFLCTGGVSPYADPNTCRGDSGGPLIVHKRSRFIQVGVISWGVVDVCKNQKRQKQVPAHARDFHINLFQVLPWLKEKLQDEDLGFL
FB, sequence (Q91132 23-649 partner limits assumed): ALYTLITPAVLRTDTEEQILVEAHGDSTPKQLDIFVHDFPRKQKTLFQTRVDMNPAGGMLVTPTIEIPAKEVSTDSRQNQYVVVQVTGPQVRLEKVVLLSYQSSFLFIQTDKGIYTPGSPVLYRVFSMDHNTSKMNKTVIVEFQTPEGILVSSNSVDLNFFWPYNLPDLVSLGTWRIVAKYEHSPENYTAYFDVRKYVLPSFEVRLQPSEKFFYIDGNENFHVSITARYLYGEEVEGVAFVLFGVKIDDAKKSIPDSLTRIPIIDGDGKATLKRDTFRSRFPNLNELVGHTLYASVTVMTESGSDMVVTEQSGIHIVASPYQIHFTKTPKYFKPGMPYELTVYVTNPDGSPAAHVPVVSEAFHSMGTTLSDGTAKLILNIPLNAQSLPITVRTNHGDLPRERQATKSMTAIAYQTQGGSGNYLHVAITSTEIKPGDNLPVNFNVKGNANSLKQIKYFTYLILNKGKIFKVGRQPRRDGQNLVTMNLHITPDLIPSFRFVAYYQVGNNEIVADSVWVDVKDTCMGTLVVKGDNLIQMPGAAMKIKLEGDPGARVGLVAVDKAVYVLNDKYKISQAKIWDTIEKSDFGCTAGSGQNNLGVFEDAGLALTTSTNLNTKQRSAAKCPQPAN
FB, sequence (Q91132 733-984 partner limits assumed): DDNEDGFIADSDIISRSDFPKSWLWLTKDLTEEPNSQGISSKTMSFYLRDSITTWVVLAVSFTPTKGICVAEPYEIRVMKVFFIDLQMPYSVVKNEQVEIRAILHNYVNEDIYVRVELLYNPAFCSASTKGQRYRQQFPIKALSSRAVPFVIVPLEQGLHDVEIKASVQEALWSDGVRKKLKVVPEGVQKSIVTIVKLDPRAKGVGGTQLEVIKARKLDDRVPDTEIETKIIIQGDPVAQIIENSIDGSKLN
FB, sequence (Q91132 1264-1642 partner limits assumed): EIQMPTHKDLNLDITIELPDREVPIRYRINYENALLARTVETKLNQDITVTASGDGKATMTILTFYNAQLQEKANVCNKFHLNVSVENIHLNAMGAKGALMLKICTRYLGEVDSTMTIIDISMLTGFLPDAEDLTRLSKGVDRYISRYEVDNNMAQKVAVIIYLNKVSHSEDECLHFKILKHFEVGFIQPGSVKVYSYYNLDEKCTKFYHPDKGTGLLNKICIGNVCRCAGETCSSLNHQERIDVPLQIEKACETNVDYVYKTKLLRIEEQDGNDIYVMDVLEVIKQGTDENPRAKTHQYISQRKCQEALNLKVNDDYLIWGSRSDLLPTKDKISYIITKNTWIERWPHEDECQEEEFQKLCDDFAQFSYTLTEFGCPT
Procedure for FB: CVF (1 μM), FB (1 μM) and FD (300 nM) were incubated in Assay buffer (pH=7.4, 10 mM MgCl2, 0.05% (m/v), CHAPS) for 3 h at room temperature, so that all FB was cleaved into Baby FD and CVF:Bb complex was generated. SDS-PAGE analysis confirmed that FB was completely hydrolyzed, that is, the concentration of the generated CVF:Bb complex was 300 nM. The CVF:Bb complex was diluted to a concentration of 5 nM using Assay buffer and preincubated with different concentrations of the compounds in assay buffer for 1 h at room temperature. C3 was added to a final concentration of 1 μM to start the enzymatic reaction. After reacting at room temperature for 1 h, protease inhibitor mixture (Roche Complete Inhibitor Tablets) was added to stop the enzyme reaction. Human C3a ELISA kit (Hycult HK354-01) was used to determine the generation of C3a according to the instruction in the kit. The FB activity inhibition rate was plotted against the inhibitor concentration, and graphpad nonlinear regression was used to calculate the IC50 value.

Regarding `COc1cc(C)c2[nH]ccc2c1CN1CCC2(CCCO2)C[C@H]1c1ccc(C(=O)O)cc1` (single isomer, unassigned) [Trifluoroacetate of compound 2-b (diastereomer 2)], the pIC50 in data set [1] is > 6.70; against FB, > 6.30. The “Inhibition rate of C3a levels in mice” value was 35.04% in the data set on C3a levels in mice (Dosage 30 mg/kg) and 73.12% with C3a levels in mice (Dosage 60 mg/kg).
Turning to `COc1cc(C)c2[nH]ccc2c1CN1CC[C@H](OCC2CC2)C[C@H]1c1ccc(C(=O)O)cc1` [Compound 4, 4-((2S,4S)-4-(cyclopropylmethoxy)-1-((5-methoxy-7-methyl-1H-indol-4-yl)methyl)piperidin-2-yl)benzoic acid], the pIC50 in data set [1] is > 6.70; against FB, > 6.30.
For `COc1cc(C)c2[nH]ccc2c1CN1CC[C@@H](C2CC2)C[C@H]1c1ccc(C(=O)O)cc1` [Trifluoroacetate of compound 5 (diastereomer 1), 4-((2S)-4-cyclopropyl-1-((5-methoxy-7-methyl-1H-indol-4-yl)methyl)piperidin-2-yl)benzoic acid], the “Remaining % (T = 60 min) DLM0.5” value in data set [2] is >90%. In addition, the “Remaining % (T = 60 min) RLM0.5” value in data set [3] was >90%. In data set [4], this compound returned a bioavailability of 81.5% and an AUC(0-t) of 15900 ng·h/mL. In [5], the bioavailability in monkeys result is reported as “higher” and the “oral exposure in monkeys” value is “higher”. The “Remaining % (T = 60 min) CLM0.5” value in [6] is reported as >90%. Further, the “Remaining % (T = 60 min) MouLM0.5” value in data set [7] was >90%. In the data set “Caco2 permeability test”, the Papp A→B at 2 h, 2 μM was 2.17 ×10⁻⁶ cm/s and the Papp B→A at 2 h, 2 μM turned out to be 23.9 ×10⁻⁶ cm/s. Further, in the data set with Caco-2 cells, the permeability entry is “better”. Besides, the pIC50 in data set [1] is > 6.70. In addition, the “Remaining % (T = 60 min) HLM0.5” value in data set [8] was >90%. In data set [9], this compound showed a bioavailability of 62.6%, an AUC(0-t) of 49300 ng·h/mL and a half-life of 20.9 h.
